Laboratory results taken from patent publication US20100260841A1, “Method of Treating Atherosclerosis, Dyslipidemias and Related Conditions” (priority 2007, published 2010).

Legend:
[1] = patients, Compound E alone or coadministered with ERN
Protocol: (§1) Patients (N=412) were randomized to ERN 1 gram (given as Niaspan®, with no prior titration) plus compound E placebo, 18.75, 37.5, 75 or 150 mg, or double placebo for 4 weeks (acute phase) with doubling of the respective doses for the remaining 4 weeks (chronic phase). Patients reported flushing intensity using the validated Global Flushing Severity Score (GFSS); none/mild (0-3), moderate (4-6), severe (7-9) and extreme (10) in a daily eDiary. A subset of patients was randomized to compound E 150 mg versus placebo in a 4-week crossover safety study.

[2] = system: extended-release niacin (ERN) induced flushing; conditions: patients
Protocol: as §1

[3] = system: lipid altering effects of ERN; conditions: patients, Compound E 150 mg with ERN

Q: For `CS(=O)(=O)c1cc(F)cc2c3c(n(Cc4ccc(Cl)cc4)c12)[C@@H](CC(=O)O)CC3` [Compound E], which “incidence of adverse experiences” value [1] is on record?
A: low incidence

Q: And the “acute phase flushing intensity compared to ERN alone” value ([2]; Compound E plus ERN 1 gram, first 4 weeks, GFSS, dose-response p<0.001)?
A: significantly lower

Q: And the “chronic phase flushing intensity compared to ERN alone” value ([2]; Compound E plus ERN, doubled doses, remaining 4 weeks, GFSS, dose-response p=0.021)?
A: significantly lower

Q: And the “tolerability and achievement of optimal therapeutic dosing of niacin” value ([2]; Compound E with ERN treatment)?
A: significantly improved

Q: What about the “flushing intensity versus ERN alone at each coadministered dose” value ([2]; each coadministered dose of Compound E (18.75, 37.5, 75 or 150 mg), p<0.05) of the same compound?
A: significantly (p<0.05) lower flushing intensity

Q: And the “impact on the lipid altering effects of ERN” value [3]?
A: did not significantly impact
